This note sets out measurements from BindingDB's records for PubMed 10565848 (Washington State University, 1999).

pKi: −log10 of the molar value. “And” between values parts separate entries of the source, which are not always exact repeats. Identical values can stand only once. Where a SMILES comes first, the peptide text is derived from it. [ ]: non-standard residue; d: D form. GABA = NCCCC(=O)O

The target in the assay is Angiotensin-converting enzyme 2 (Bos taurus, UniProt Q58DD0).
Sequence of Angiotensin-converting enzyme 2 (Q58DD0 whole entry): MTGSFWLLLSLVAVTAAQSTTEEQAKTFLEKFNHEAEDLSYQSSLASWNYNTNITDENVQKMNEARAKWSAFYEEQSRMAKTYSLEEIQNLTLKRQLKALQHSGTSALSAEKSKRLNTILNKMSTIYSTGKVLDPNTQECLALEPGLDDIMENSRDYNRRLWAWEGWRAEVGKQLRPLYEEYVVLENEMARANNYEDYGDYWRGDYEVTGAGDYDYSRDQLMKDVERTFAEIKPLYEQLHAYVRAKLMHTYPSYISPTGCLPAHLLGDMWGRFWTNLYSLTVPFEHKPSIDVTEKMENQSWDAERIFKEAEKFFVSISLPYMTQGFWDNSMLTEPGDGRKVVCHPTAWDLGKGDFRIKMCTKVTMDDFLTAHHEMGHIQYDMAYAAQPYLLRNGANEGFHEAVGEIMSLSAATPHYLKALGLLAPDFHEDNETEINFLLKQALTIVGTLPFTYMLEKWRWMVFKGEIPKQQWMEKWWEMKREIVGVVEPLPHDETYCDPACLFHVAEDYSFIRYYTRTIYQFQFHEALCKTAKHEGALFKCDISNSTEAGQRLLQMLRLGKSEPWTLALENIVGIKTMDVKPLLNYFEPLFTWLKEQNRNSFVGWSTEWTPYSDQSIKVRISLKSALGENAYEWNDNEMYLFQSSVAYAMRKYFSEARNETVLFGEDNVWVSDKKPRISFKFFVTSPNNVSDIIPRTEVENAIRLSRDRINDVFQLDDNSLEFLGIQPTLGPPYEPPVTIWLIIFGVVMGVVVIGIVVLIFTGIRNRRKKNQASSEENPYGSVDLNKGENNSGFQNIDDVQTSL
On to `Cc1cc(Cn2cnc3c2C[C@@H](C(=O)O)N(C(=O)C(c2ccccc2)c2ccccc2)C3)ccc1N`, for which the pKi was under 5.00.

In the case of `CC[C@H](C)[C@H](NC(=O)[C@H](Cc1ccc(O)cc1)NC(=O)[C@@H](N)C(C)C)C(=O)N[C@@H](Cc1cnc[nH]1)C(=O)N1CCC[C@H]1C(=O)N[C@@H](Cc1ccccc1)C(=O)O`, the pKi was 8.26 and 8.45.

Turning to `CCC(C)[C@H](NC(=O)[C@@H]1CCCN1C(=O)[C@H](Cc1cnc[nH]1)NC(=O)[C@@H](NC(=O)[C@H](Cc1ccc(O)cc1)NC(=O)[C@@H](NC(=O)[C@H](CCCN=C(N)N)NC(=O)CNC)C(C)C)[C@@H](C)CC)C(=O)O` (stereo partly specified) [Ang II Ile8, Sar1], the pKi is 6.00.

As for `CC[C@H](C)[C@H](NC(=O)[C@H](Cc1ccc(O)cc1)NC(=O)[C@@H](NC(=O)[C@H](CCCN=C(N)N)NC(=O)CNC)C(C)C)C(=O)N[C@@H](Cc1cnc[nH]1)C(=O)N1CCC[C@H]1C(=O)N[C@H](C(=O)O)C(C)O` (stereo partly specified) [Ang II Thr8, Sar1], the pKi is 6.00.

Take `CC[C@H](C)[C@H](NC(=O)[C@H](Cc1ccc(O)cc1)NC(=O)[C@H](N)C(C)C)C(=O)N[C@@H](Cc1cnc[nH]1)C(=O)N1CCC[C@H]1C(=O)N[C@@H](Cc1ccccc1)C(=O)O` [Ang IV D-Val1]: the negative-log Ki (pKi) is 6.00.

In the case of `CC[C@H](C)[C@H](NC(=O)[C@H](Cc1ccc(O)cc1)NC(=O)CCCN)C(=O)N[C@@H](Cc1cnc[nH]1)C(=O)N1CCC[C@H]1C(=O)N[C@@H](Cc1ccccc1)C(=O)O` [Ang IV Nor1] (H-[GABA]YIHPF-OH), the negative-log Ki (pKi) is 8.07 and 8.49.

With `CC[C@H](C)[C@H](NC(=O)[C@H](Cc1ccc(O)cc1)NC(=O)[C@@H](NC(=O)[C@H](CCCNC(=N)N)NC(=O)[C@@H](N)CC(=O)O)C(C)C)C(=O)N[C@@H](Cc1cnc[nH]1)C(=O)N[C@H](C)C(=O)O` [Ang(1-7) D-Ala7] (H-DRVYIH[dA]-OH), the pKi was 6.00.

`CC[C@H](C)[C@H](NC(=O)[C@H](Cc1ccc(O)cc1)NC(=O)[C@@H](NC(=O)[C@H](CCCNC(=N)N)NC(=O)[C@@H](N)CC(=O)O)C(C)C)C(=O)N[C@@H](Cc1c[nH]cn1)C(=O)N1CCC[C@H]1C(=O)O` [Ang(1-7)] gave a negative-log Ki (pKi) of 6.00.

With `CC[C@H](C)[C@H](NC(=O)[C@H](Cc1ccc(O)cc1)NC(=O)[C@@H](NC(=O)[C@@H](N)CCCN=C(N)N)C(C)C)C(=O)N[C@@H](Cc1cnc[nH]1)C(=O)N1CCC[C@H]1C(=O)O` [Ang(2-7)], the negative logarithm of the Ki (pKi) is 7.47.

`CC(C)[C@H](N)C(=O)N[C@@H](Cc1ccc(O)cc1)C(=O)O` [Ang(3-4)] (H-Val-Tyr-OH): the pKi is 6.00.

`CC[C@H](C)[C@H](NC(=O)[C@H](Cc1ccc(O)cc1)NC(=O)[C@@H](N)C(C)C)C(=O)O` [Ang(3-5)] (H-Val-Tyr-Ile-OH) gave a negative logarithm of the Ki (pKi) of 8.00.

As to `CC[C@H](C)[C@H](NC(=O)[C@H](Cc1ccc(O)cc1)NC(=O)[C@@H](N)C(C)C)C(=O)N[C@@H](Cc1cnc[nH]1)C(=O)O` [Ang(3-6)] (H-VYIH-OH), the negative logarithm of the Ki (pKi) is 7.84.

Turning to `CC[C@H](C)[C@H](NC(=O)[C@H](Cc1ccc(O)cc1)NC(=O)[C@@H](N)C(C)C)C(=O)N[C@@H](Cc1cnc[nH]1)C(=O)N1CCC[C@H]1C(=O)O` [Ang(3-7)] (H-VYIHP-OH), the pKi is 7.98.

The molecule `CC[C@H](C)[C@H](NC(=O)[C@H](Cc1ccc(O)cc1)NC(=O)[C@@H](N)C(C)C)C(=O)N[C@@H](Cc1c[nH]cn1)C(=O)N1CCC[C@H]1C(=O)N[C@@H](Cc1ccccc1)C(=O)N[C@@H](Cc1c[nH]cn1)C(=O)O` [Ang(3-9)] (H-VYIHPFH-OH) gave a negative logarithm of the Ki (pKi) of 8.14.

Turning to `CC[C@H](C)[C@H](NC(=O)[C@H](Cc1ccc(O)cc1)NC(=O)[C@@H](N)C(C)C)C(=O)N[C@@H](Cc1c[nH]cn1)C(=O)N1CCC[C@H]1C(=O)N[C@@H](Cc1ccccc1)C(=O)N[C@@H](Cc1c[nH]cn1)C(=O)N[C@@H](CC(C)C)C(=O)O` [Ang(3-10)] (H-VYIHPFHL-OH), the pKi was 7.73.

The molecule `CC[C@H](C)[C@H](NC(=O)[C@H](Cc1ccc(O)cc1)NC(=O)[C@@H](N)C(C)C)C(=O)N[C@@H](Cc1cnc[nH]1)C(=O)N1CCC[C@H]1C(=O)N[C@@H](Cc1ccccc1)C(=O)N[C@@H](Cc1cnc[nH]1)C(=O)N[C@@H](CC(C)C)C(=O)N[C@H](C(=O)O)C(C)C` [Ang(3-11)] (H-VYIHPFHLV-OH) showed a pKi of 6.93.

As to `CC[C@H](C)[C@H](NC(=O)[C@@H](N)Cc1ccc(O)cc1)C(=O)N[C@@H](Cc1cnc[nH]1)C(=O)N1CCC[C@H]1C(=O)N[C@@H](Cc1ccccc1)C(=O)O` [Ang(4-8)] (H-YIHPF-OH), the negative logarithm of the Ki (pKi) was 6.00.

On to `CC[C@H](C)[C@H](NC(=O)[C@H](Cc1ccc(O)cc1)NC(=O)[C@@H](NC(=O)[C@@H](N)CCCN=C(N)N)C(C)C)C(=O)N[C@@H](Cc1c[nH]cn1)C(=O)N1CCC[C@H]1C(=O)N[C@@H](Cc1ccccc1)C(=O)O` [CAS_12687-51-3], for which the pKi was 7.20 and 7.43.

For `CCCCc1nc(Cl)c(CO)n1Cc1ccc(-c2ccccc2-c2nn[nH]n2)cc1` [NSC_3961], the negative logarithm of the Ki (pKi) was under 5.00.

Regarding `CC[C@H](C)[C@H](NC(=O)[C@H](Cc1ccc(O)cc1)NC(=O)[C@@H](NC(=O)[C@H](CCCNC(=N)N)NC(=O)[C@@H](N)CC(=O)O)C(C)C)C(=O)N[C@@H](Cc1cnc[nH]1)C(=O)N1CCC[C@H]1C(=O)N[C@@H](Cc1ccccc1)C(=O)O` [NSC_439662], the negative logarithm of the Ki (pKi) is 6.39 and 6.24.

For `CCCC[C@H](N)C(=O)N[C@H](Cc1ccccc1)C(=O)NCCCCCC(N)=O` [NleYI-6-hexamide], the pKi is 7.86.

As usually defined, the pKi is the Ki on a negative log10 scale, so that one unit is a factor of ten. Low values mean a high Ki, high ones a low Ki.
